Measured values published in ChEMBL document CHEMBL6153123, “Discovery of Potent and Brain-Penetrant Bicyclic NLRP3 Inhibitors with Peripheral and Central In Vivo Activity” (J Med Chem, 2025).

What was measured:
in vivo = details: male, CD1, mouse, brain and plasma, po
in vitro = details: dog, MDCK-MDR1
physchem = details: buffer, pH 7.4

| SMILES | Kp uu (in vivo) | Papp A→B (in vitro) [×10⁻⁶ cm/s] | chromatographic logD (physchem) |
| --- | --- | --- | --- |
| Cc1cc(C(F)(F)F)cc(O)c1-c1nnc(N[C@@H]2CCCN(C)C2)n2nccc12 | 0.056 | 26 | 1.73 |
| CN1C[C@H](Nc2nnc(-c3ccc(C(F)(F)F)cc3O)c3ccnn23)CC(F)(F)C1 |  | 13 | 3.85 |
